{"source": "patent US20240424103A1", "about": "“ANTICANCER AGENT, PRODRUG OF ANTICANCER AGENT, METHOD FOR KILLING CANCER CELL IN VITRO, CANCER […], AND CANCER TREATMENT DEVICE” (NATIONAL INSTITUTE OF ADVANCED INDUSTRIAL SCIENCE AND …, priority 2021, published 2024)", "key": {"RGK-KO cells": {"test_system": "RGK-KO cells", "experiment": "Proton beam irradiation of RGK-KO cells cultured on ^15N_5-ALA-containing culture medium, surviving fraction by fluorescent protein image and DAPI staining", "format": "cell-based, rat", "conditions": "^15N_5-ALA in medium 24 hours before irradiation, charge amount 4.0 nC, 1.3 MeV", "source_text": "The RGK-KO cells and RGM-GFP cells cultured on a culture medium containing ^15N_5-ALA and the RGK-KO cells and RGM-GFP cells cultured on a culture medium not containing ^15N_5-ALA were in each instance held sealed in a vacuum along with the culture medium and were irradiated with a proton beam at a prescribed ion charge amount. With regard to the proton beam energy, considering the attenuation of the proton beam energy by the Torelina film and the culture solution sealed in the vacuum, the sample was irradiated at 1.3 MeV to match the 1.21 MeV resonance energy.\nThe upper sections show images of RGM-GFP cells made to metabolize a fluorescent protein by genetic recombination; the lower sections each show photographs in which the dead cells are identified by the DAPI staining method, which stains the DNA in the nucleus of dead cells. […]\nThe photographs in FIG. 20 show the case of a proton beam irradiation amount of charge of 4.0 nC for both cells. Genes for the metabolism of fluorescent protein are also incorporated in the RGK-KO cells, and the cells present a red color when observed with a fluorescence microscope. […]"}, "[1]": {"test_system": "rat gastric mucosal-derived cancer cells (RGK-KO) versus rat gastric mucosal-derived cells (RGM-GFP)", "experiment": "Cellular intake of ^15N_5-ALA by cancer cells and normal cells, quantitated by 4.43 MeV gamma rays from the ^15N resonance nuclear reaction", "format": "cell-based", "conditions": "24 hours after the addition of ^15N_5-ALA; 1 mmol/L in culture medium; RGK-KO vs RGM-GFP", "description": "Rat gastric mucosal-derived cells (RGM-GFP) were prepared as normal cells and rat gastric mucosal-derived cancer cells (RGK-KO) were prepared as cancer cells, and the difference in cellular intake of ^15N_5-ALA between the RGM-GFP cells and RGK-KO cells was confirmed as follows. The rat gastric mucosal-derived cells and rat gastric mucosal-derived cancer cells are both derived from the rat and are widely used in research on anticancer agents because they have the same gene sequence (refer to Non-Patent Documents 6 and 7).\nThe RGM-GFP cells and RGK-KO cells were cultured for 3 or 4 days on a culture solution adapted to each and were grown to 80% confluence; this was followed by the addition of ^15N_5-ALA and the amount of ^15N intake per cell with elapsed time was measured. […] The cells, which had grown with attachment to the bottom of the Petri dish, were detached from the Petri dish by the addition of trypsin, and the concentration of the liberated cells was measured.\nThe concentration was adjusted, and 10^5 cells/2 μL was dripped onto a crystalline silicon substrate and drying was carried out. […] The 4.43 MeV gamma radiation emitted by this resonance nuclear reaction with ^15N was measured using a Bi4Ge3O12 (BGO) detector. […]\nThe specific procedure for quantitating the ^15N_5-ALA intake by the RGM-GFP cells and RGK-KO cells was as follows. […]"}}, "note": "“And” between values parts separate entries of the source, which are not always exact repeats. Identical values can stand only once.", "data": [{"smiles": "[15NH2]CC(=O)CCC(=O)O", "note": "[^15N_5-ALA, 5-aminolevulinic acid in which the nitrogen is nitrogen-15]", "values": [{"measurement": "surviving fraction immediately after (within three hours) proton beam irradiation", "setting": "RGK-KO cells", "value": "73.5% and 85.5%"}, {"measurement": "intake of ^15N_5-ALA by cancer cells relative to the intake by the normal cells", "setting": "[1]", "value": "at least 5 times"}]}]}
